The NIST ThermoML archive (doi:10.1016/j.jct.2006.05.001)
± gives the expanded uncertainty stated by the source.

Tests used:
[1] = Liquid; for mass density: 101.33 kPa; for Normal boiling temperature: Distillation
[2] = refractive index (Na D-line) (dimensionless); conditions: 293.15 K; 101.33 kPa; Liquid; Standard Abbe refractometry

Row | SMILES | mass density ([1]; 297.15 K) | Normal boiling temperature [1] | refractive index [2] | mass density ([1]; 293.15 K) | mass density ([1]; 298.15 K)
1 | CCCCCCCCCCCCO [dodecan-1-ol] | 830.8 ± 1.5 kg/m3 | 259.4 ± 0.5 °C |  |  | 
2 | CCCCCCCCCCO [decan-1-ol] |  | 230.6 ± 0.5 °C | 1.4373 ± 0.0008 | 829.5 ± 0.94 kg/m3 | 
3 | CCC(=O)O [propanoic acid] |  | 141.4 ± 0.5 °C | 1.3808 ± 0.0008 |  | 988.04 ± 0.53 kg/m3
4 | CCCCCCCCO [octan-1-ol] |  | 195 ± 0.5 °C | 1.4292 ± 0.0008 |  | 826.25 ± 0.95 kg/m3
5 | CCCCCCCCCO [nonan-1-ol] |  | 215.2 ± 0.5 °C | 1.4335 ± 0.0008 | 828.5 ± 1.7 kg/m3 | 
